Data from the NIST ThermoML archive (doi:10.1016/j.jct.2013.01.012).

Tests used:
[1] = mn = molality of the nth substance listed, in mol/kg; details: 101 kPa, Liquid; for speed of sound: Sing-around technique in a fixed-path interferometer; for mass density: Vibrating tube method
[2] = refractive index (Na D-line) (dimensionless); mn = molality of the nth substance listed, in mol/kg; details: 101 kPa, Liquid, Standard Abbe refractometry

O=P([O-])([O-])[O-].[Na+].[Na+].[Na+] [trisodium phosphate] + O
Details | mass density, 298.15 K [kg/m3] | mass density, 303.15 K [kg/m3] | mass density, 308.15 K [kg/m3] | refractive index, 298.15 K | refractive index, 303.15 K | refractive index, 308.15 K | speed of sound, 298.15 K [m/s] | speed of sound, 303.15 K [m/s] | speed of sound, 308.15 K [m/s]
[1], m1 = 0.1 | 1015.18 | 1013.87 | 1012.26 | – | – | – | 1519.7 | 1531.5 | 1541.8
[1], m1 = 0.3 | 1052.41 | 1051.09 | 1049.48 | – | – | – | 1563.1 | 1573.9 | 1583.5
[1], m1 = 0.5 | 1091.06 | 1090.82 | 1089.21 | – | – | – | 1608.9 | 1619.9 | 1628.3
[1], m1 = 0.7 | 1130.08 | 1129.51 | 1131.08 | – | – | – | 1658.1 | 1667.3 | 1677.7
[1], m1 = 0.9 | 1173.67 | 1169.99 | 1167.45 | – | – | – | 1716.9 | 1722.6 | 1727.6
[2], m1 = 0.1 | – | – | – | 1.3365 | 1.3358 | 1.3353 | – | – | –
[2], m1 = 0.3 | – | – | – | 1.3439 | 1.3431 | 1.3425 | – | – | –
[2], m1 = 0.5 | – | – | – | 1.3515 | 1.3506 | 1.35 | – | – | –
[2], m1 = 0.7 | – | – | – | 1.3588 | 1.3581 | 1.3574 | – | – | –
[2], m1 = 0.9 | – | – | – | 1.3664 | 1.3671 | 1.3653 | – | – | –
